Assay [1] addresses T1, Phosphatidylinositol 4,5-bisphosphate 3-kinase catalytic subunit delta isoform (Homo sapiens) (UniProt O00329).
T1 sequence (whole entry): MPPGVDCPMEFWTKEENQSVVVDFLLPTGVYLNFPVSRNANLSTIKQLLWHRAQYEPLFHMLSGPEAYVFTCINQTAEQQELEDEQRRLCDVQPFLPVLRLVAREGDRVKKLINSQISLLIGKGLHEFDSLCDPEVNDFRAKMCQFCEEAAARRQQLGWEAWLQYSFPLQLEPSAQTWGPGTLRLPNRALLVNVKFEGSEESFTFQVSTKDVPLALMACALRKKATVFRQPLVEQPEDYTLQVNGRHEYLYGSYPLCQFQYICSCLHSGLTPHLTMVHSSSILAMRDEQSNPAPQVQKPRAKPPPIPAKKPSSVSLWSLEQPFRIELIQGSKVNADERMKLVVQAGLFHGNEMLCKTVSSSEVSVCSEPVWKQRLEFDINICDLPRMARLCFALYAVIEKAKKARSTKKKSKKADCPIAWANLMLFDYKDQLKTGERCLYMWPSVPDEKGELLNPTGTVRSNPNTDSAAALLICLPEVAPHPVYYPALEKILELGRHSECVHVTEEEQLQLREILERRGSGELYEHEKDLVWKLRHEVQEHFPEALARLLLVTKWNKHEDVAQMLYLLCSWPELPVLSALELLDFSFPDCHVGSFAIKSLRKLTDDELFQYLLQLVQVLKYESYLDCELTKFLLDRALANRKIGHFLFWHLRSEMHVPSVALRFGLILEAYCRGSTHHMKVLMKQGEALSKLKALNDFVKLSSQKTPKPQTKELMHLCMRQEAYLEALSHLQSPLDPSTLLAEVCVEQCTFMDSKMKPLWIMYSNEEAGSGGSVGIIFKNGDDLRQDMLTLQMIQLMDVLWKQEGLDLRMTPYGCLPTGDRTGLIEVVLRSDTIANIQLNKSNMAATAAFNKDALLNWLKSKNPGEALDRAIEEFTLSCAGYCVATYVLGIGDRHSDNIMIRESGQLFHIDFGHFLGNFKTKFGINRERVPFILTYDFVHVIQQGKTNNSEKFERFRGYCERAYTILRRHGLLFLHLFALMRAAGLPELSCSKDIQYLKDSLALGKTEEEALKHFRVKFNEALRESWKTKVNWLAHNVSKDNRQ
Nature of the assay: Inhibition of PIK3CD ATP labeling site in human A-375 cells at 5 uM by KiNativ Profiling analysis relative to control. Format: cell-based.

Assay [2] addresses Tyrosine-protein kinase Fyn (Homo sapiens) (UniProt P06241). Nature of the assay: Inhibition of FYN ACT labeling site in human A-375 cells at 0.05 uM by KiNativ Profiling analysis relative to control. The format is cell-based.
The target of assay [3] is Serine/threonine-protein kinase MARK1 (Homo sapiens) (UniProt Q9P0L2). As to the kind of experiment: Inhibition of MARK1 Lys2 labeling site in human A-375 cells at 0.05 uM by KiNativ Profiling analysis relative to control. Format: cell-based.
For assay [4], the system named is Mast/stem cell growth factor receptor Kit (Homo sapiens), P10721 [V559D,T670I]. As to the kind of experiment: Inhibition of KIT V559D/T670I double mutant (unknown origin) at 10 uM by Ambit Kinomescan binding assay relative to control.
For assay [5], the target named is T2, Serine/threonine-protein kinase ULK1 (Homo sapiens) (UniProt O75385).
T2 sequence (whole entry): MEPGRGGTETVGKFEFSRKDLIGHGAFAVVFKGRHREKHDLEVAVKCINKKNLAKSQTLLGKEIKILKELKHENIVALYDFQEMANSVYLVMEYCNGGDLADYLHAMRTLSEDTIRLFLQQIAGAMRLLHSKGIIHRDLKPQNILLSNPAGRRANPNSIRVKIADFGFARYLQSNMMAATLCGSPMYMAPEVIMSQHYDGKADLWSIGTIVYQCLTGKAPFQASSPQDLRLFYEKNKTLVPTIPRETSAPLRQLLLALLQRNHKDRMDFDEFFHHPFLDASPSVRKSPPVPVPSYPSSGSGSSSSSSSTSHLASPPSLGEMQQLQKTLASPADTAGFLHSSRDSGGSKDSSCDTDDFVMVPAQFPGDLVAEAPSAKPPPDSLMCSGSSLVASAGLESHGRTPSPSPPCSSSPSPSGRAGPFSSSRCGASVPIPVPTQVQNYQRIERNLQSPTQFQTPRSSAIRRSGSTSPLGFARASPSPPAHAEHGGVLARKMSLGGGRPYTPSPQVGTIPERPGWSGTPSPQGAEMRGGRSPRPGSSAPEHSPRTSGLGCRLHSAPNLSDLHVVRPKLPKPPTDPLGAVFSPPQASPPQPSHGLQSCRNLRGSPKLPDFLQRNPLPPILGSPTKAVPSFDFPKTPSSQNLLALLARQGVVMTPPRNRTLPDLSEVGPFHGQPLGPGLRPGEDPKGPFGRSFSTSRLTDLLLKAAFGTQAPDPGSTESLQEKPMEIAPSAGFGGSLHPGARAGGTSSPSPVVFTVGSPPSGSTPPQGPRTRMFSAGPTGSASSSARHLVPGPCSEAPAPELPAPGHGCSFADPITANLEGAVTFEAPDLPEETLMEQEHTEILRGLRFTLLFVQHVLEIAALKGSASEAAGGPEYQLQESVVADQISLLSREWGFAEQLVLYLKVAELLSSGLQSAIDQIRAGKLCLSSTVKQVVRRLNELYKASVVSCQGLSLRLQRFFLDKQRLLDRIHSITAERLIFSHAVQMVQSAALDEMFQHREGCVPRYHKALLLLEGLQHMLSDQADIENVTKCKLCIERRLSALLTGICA
As to the kind of experiment: Inhibition of ULK1 Lys2 labeling site in human A-375 cells at 0.05 uM by KiNativ Profiling analysis relative to control. The format is cell-based.

Assay [6] deals with Serine/threonine-protein kinase Nek7 (Homo sapiens) (UniProt Q8TDX7). Nature of the assay: Inhibition of NEK7 K1 labeling site in human Huh-7 cells at 10 uM by KiNativ Profiling analysis relative to control. Format: cell-based.
The target of assay [7] is T3, Serine/threonine-protein kinase 3 (Homo sapiens) (UniProt Q13188).
T3 sequence (whole entry): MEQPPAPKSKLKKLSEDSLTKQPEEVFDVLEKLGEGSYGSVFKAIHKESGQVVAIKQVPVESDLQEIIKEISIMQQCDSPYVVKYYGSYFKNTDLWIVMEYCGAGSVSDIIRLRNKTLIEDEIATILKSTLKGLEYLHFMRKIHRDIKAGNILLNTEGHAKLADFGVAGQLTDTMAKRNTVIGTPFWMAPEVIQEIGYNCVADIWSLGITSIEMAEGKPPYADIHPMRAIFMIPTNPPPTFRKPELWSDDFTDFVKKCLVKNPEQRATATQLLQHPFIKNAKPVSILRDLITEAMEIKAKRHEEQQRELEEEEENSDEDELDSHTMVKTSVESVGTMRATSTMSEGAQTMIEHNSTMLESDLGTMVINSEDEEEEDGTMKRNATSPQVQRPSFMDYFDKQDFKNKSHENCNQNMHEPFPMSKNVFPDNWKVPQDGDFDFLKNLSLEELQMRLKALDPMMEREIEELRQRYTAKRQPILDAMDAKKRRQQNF
Nature of the assay: Inhibition of MST2 K1 labeling site in human Huh-7 cells at 1 uM by KiNativ Profiling analysis relative to control. The format is cell-based.

Chain of Serine/threonine-protein kinase Nek7 (Homo sapiens) (Q8TDX7 whole entry, looked up): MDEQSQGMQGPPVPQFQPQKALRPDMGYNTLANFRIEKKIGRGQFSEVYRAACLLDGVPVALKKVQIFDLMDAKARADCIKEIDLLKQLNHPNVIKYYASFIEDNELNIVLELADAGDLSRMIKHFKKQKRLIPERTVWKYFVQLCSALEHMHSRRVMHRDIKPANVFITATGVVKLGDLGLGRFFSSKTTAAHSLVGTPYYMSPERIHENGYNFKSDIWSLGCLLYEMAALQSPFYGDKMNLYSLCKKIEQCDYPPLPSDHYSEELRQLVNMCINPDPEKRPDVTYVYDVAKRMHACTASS
Chain of Serine/threonine-protein kinase MARK1 (Homo sapiens) (Q9P0L2 whole entry, looked up): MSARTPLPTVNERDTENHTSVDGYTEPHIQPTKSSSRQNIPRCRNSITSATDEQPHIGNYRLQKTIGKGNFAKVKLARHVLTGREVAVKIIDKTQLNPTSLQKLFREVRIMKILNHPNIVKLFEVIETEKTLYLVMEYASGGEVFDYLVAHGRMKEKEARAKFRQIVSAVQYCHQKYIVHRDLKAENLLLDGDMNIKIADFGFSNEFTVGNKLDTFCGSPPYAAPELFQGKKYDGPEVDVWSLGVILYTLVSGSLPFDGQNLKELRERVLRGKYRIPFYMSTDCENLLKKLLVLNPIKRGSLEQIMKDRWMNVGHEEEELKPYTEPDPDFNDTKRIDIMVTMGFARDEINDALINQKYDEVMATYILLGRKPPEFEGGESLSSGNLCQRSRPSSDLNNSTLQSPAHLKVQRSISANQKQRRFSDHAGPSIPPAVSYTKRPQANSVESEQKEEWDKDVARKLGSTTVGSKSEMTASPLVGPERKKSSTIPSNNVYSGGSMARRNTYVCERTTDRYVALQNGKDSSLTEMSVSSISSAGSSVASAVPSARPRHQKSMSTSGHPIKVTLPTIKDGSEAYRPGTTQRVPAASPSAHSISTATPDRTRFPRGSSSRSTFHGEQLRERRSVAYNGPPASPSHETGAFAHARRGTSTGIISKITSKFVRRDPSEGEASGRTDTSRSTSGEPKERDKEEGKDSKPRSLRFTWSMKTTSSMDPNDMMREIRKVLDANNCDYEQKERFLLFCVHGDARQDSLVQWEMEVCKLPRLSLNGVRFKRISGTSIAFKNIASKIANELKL
Chain of Mast/stem cell growth factor receptor Kit (Homo sapiens), P10721 [V559D,T670I] (P10721 whole entry V559D/T670I): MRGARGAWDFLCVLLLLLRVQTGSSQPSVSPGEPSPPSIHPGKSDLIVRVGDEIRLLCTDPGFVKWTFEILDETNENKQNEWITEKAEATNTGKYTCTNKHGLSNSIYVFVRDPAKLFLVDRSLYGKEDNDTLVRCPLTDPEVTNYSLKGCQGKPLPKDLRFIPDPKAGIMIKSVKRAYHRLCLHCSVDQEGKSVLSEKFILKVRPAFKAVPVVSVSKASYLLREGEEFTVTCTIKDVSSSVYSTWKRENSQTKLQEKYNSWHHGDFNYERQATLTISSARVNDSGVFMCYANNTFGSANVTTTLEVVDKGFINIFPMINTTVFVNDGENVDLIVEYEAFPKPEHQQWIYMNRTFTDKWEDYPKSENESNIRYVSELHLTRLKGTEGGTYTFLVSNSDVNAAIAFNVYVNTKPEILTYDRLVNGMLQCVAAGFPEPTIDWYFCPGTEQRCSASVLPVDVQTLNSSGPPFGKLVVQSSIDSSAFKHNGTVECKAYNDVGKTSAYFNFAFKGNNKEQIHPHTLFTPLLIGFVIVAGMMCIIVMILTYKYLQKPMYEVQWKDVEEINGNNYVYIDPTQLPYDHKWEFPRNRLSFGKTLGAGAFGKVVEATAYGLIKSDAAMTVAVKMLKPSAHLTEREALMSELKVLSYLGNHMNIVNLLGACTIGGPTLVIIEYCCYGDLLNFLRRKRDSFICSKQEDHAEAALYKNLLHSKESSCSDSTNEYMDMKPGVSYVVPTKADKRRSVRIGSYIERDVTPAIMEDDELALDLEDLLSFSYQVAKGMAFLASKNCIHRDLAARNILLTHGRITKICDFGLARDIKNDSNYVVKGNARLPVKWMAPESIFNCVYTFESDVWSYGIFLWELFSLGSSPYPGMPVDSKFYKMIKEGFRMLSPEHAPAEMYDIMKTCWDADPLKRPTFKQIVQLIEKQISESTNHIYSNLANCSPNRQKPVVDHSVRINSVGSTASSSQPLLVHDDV
Chain of Tyrosine-protein kinase Fyn (Homo sapiens) (P06241 2-537 limits assumed): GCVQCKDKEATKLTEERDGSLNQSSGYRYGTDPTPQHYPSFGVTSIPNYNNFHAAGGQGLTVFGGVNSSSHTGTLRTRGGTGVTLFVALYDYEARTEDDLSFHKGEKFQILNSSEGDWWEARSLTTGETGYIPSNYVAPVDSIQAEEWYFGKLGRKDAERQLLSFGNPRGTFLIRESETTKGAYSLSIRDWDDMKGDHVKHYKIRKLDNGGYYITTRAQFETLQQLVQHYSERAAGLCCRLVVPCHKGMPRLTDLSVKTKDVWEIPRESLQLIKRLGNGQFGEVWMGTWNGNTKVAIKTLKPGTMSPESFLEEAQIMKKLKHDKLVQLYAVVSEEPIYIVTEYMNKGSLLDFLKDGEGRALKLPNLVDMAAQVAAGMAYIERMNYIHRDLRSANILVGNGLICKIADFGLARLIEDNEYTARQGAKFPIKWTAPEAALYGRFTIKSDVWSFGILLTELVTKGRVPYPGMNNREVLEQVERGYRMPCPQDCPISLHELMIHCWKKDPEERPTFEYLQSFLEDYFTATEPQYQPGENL

One may read the inhibition as the relative decrease from the control value, in per cent. For the compound `CCN1CCN(Cc2ccc(NC(=O)c3ccc(C)c(/C=C/c4cnc5[nH]ccc5c4OC)c3)cc2C(F)(F)F)CC1`, the inhibition came out at 21.3% in assay [1], 38.9% in assay [2] and 17.5% in assay [3].

As to `CCN1CCN(Cc2ccc(NC(=O)c3ccc(C)c(Oc4ccnc5[nH]ccc45)c3)cc2C(F)(F)F)CC1`, the inhibition in assay [4] was 0.05%; in assay [5] it was 4.8%; in assay [6] it was -8.8%; in assay [7], 16.2%.

The record behind these values is ChEMBL document CHEMBL5696442, “Discovery of type II inhibitors of TGFβ-activated kinase 1 (TAK1) and mitogen-activated protein kinase kinase kinase kinase 2 (MAP4K2)” (J Med Chem, 2015).
